Experimental data from patent US12227500B2, “Substituted pyrrolo[2,3-b]pyridines for suppressing toxic endoplasmic reticulum stress” (THE TRUSTEES OF COLUMBIA UNIVERSITY IN THE CITY OF NEW YORK, priority 2018, dated 2025).

Legend:
[1] = target: T1, panel of 60 human kinases (Homo sapiens, UniProt O15264); assay: Radiolabeled ATP kinase assay, panel of 60 kinases (Table S5); type: biochemical; details: P38d/MAPK13; 0.1 μM; 10 μM ATP; read-out: % Enzyme Activity (relative to DSMO controls)
T1 construct: purchased Reaction Biology Corp
T1 sequence (O15264 1-365): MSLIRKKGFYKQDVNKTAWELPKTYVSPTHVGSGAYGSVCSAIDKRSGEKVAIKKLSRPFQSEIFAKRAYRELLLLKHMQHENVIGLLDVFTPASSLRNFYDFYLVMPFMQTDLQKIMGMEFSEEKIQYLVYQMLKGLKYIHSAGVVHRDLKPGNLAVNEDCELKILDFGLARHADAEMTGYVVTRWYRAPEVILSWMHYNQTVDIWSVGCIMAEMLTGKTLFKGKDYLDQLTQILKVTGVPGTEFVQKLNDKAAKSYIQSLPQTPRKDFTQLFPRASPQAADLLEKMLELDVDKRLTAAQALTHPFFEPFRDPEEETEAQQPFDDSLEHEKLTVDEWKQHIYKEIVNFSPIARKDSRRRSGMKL
Summary of the method: (§1)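 Compounds at two concentrations, 0.1 μM and 0.5 μM, were screened for inhibition of 60 kinases in cell-free assays read out by radiolabeled ATP.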

[2] = target: T2, panel of 60 human kinases (Homo sapiens, UniProt P11362); assay: as above; type: biochemical; details: FGFR1; 0.1 μM; 10 μM ATP; read-out: % Enzyme Activity (relative to DSMO controls)
T2 construct: purchased Reaction Biology Corp
T2 sequence (P11362 22-822): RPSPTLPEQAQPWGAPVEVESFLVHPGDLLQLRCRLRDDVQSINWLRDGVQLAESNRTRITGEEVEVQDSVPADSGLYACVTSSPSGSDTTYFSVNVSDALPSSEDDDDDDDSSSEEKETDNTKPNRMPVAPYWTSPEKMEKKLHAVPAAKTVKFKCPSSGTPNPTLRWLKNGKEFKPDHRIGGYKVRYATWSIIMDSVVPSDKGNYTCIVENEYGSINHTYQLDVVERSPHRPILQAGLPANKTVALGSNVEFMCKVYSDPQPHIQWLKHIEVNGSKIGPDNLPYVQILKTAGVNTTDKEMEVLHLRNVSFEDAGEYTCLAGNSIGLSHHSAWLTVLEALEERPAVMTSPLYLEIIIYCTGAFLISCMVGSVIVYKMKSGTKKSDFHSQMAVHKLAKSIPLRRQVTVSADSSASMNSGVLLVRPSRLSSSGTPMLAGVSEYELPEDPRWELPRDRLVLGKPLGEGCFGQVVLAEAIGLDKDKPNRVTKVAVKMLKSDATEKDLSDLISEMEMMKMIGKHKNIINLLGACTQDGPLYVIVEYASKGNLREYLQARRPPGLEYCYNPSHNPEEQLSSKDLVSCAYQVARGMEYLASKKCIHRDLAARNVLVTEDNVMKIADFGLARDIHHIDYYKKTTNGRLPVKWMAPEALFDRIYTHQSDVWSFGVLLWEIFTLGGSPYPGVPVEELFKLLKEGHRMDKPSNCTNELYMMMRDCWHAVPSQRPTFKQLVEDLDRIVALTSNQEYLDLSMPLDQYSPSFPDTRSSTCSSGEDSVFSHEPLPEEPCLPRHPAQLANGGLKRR
Summary of the method: as §1

[3] = target: T3, panel of 60 human kinases (Homo sapiens, UniProt P49760); assay: as above; type: biochemical; details: CLK2; 0.1 μM; 10 μM ATP; read-out: % Enzyme Activity (relative to DSMO controls)
T3 construct: purchased Reaction Biology Corp
T3 sequence (P49760 whole entry): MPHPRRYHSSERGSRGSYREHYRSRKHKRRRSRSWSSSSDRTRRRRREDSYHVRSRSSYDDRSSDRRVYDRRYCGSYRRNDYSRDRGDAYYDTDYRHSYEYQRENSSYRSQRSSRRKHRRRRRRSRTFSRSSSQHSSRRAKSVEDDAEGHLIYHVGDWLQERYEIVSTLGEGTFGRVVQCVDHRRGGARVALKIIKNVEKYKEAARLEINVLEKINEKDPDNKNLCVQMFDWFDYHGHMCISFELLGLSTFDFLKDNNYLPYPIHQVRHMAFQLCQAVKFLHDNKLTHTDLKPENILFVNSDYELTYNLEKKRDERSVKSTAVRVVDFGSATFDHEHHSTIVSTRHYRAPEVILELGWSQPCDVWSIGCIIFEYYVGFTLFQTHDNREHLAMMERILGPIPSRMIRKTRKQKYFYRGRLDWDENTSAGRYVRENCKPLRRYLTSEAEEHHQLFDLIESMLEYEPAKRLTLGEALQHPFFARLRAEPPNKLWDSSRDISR
Summary of the method: as §1

[4] = target: T4, panel of 60 human kinases (Homo sapiens, UniProt Q08345); assay: as above; type: biochemical; details: DDR1; 0.1 μM; 10 μM ATP; read-out: % Enzyme Activity (relative to DSMO controls)
T4 construct: purchased Reaction Biology Corp
T4 sequence (Q08345 19-913): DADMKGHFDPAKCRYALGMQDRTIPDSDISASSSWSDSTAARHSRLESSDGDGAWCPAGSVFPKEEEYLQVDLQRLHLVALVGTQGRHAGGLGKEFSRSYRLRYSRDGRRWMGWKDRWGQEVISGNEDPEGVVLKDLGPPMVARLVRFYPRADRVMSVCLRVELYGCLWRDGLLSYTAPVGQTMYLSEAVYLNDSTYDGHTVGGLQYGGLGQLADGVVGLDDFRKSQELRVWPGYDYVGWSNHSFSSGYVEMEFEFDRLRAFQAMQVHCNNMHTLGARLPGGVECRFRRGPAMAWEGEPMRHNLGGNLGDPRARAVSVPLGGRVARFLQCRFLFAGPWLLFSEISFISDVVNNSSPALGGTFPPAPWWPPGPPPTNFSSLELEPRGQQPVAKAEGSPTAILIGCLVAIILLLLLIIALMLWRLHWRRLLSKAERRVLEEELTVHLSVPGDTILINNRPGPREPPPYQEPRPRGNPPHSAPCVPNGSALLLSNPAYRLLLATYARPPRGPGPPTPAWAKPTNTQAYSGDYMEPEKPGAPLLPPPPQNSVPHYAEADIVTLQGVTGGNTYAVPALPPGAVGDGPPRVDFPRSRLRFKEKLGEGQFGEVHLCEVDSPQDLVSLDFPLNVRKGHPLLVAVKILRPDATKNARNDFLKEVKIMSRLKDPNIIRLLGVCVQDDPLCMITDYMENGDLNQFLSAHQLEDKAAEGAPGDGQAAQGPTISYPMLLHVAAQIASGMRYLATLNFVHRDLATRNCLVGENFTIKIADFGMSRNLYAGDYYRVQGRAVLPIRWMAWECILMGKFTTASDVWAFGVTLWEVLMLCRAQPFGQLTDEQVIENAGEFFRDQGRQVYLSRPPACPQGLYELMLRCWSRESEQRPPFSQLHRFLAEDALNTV
Summary of the method: as §1

[5] = target: T5, panel of 60 human kinases (Homo sapiens, UniProt Q16539); assay: as above; type: biochemical; details: P38a/MAPK14; 0.1 μM; 10 μM ATP; read-out: % Enzyme Activity (relative to DSMO controls)
T5 construct: purchased Reaction Biology Corp
T5 sequence (Q16539 whole entry): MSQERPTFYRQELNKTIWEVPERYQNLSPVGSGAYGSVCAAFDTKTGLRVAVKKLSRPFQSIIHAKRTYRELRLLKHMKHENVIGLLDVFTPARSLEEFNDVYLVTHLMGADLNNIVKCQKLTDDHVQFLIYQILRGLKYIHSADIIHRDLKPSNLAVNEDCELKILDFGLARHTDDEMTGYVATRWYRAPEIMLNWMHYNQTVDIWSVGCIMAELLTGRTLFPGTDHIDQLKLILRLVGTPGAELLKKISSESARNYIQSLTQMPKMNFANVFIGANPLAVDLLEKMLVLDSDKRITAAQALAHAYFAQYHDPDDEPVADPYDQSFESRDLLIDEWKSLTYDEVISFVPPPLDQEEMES
Summary of the method: as §1

[6] = target: T6, panel of 60 human kinases (Homo sapiens, UniProt Q7L7X3); assay: as above; type: biochemical; details: TAOK1; 0.1 μM; 10 μM ATP; read-out: % Enzyme Activity (relative to DSMO controls)
T6 construct: purchased Reaction Biology Corp
T6 sequence (Q7L7X3 1-1001): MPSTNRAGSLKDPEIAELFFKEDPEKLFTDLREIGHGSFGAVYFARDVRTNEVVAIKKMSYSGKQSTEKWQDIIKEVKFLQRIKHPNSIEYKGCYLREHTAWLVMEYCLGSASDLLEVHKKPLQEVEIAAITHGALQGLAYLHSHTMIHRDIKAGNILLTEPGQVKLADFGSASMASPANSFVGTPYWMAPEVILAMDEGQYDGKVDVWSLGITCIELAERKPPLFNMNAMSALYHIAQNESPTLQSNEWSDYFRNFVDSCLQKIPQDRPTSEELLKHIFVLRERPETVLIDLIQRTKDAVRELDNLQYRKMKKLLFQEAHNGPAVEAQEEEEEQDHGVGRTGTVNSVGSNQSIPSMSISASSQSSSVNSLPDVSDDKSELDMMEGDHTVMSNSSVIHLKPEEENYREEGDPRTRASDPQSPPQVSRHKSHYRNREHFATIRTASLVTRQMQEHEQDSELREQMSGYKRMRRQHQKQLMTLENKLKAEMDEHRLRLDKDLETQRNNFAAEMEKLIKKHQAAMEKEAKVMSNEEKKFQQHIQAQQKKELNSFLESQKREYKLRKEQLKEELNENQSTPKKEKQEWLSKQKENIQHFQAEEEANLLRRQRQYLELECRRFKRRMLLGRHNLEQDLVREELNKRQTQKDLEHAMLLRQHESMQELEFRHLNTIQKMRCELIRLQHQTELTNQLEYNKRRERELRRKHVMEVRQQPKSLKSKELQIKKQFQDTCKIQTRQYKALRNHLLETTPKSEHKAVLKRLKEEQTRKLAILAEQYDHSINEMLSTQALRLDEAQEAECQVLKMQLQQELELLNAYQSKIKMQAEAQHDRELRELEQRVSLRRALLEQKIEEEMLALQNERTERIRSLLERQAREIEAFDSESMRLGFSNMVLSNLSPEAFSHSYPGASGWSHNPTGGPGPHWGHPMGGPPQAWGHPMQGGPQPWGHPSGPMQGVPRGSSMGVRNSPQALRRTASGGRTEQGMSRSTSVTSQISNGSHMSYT
Summary of the method: as §1

N9 microglial cells = assay: TNFα release by LPS-stimulated microglia (ELISA); type: cell-based, mouse; details: for TNFα secretion in LPS-stimulated microglia: LPS 0.1-5 μM, 24 h
Procedure: To model microglial activation in vitro, we stimulated mouse N9 microglial cells with increasing concentrations of E. coli-derived lipopolysaccharides (LPS) (0.1-5 μM) to measure release of the pro-inflammatory cytokine TNFα into cell culture media.
Cultures were maintained in DMEM containing FBS (10%, Life Technologies) and Glutamax (1%, Life Technologies). […] N9 cells remaining in the culture dishes were treated with AlamarBlue (Thermo Fisher) to assess viability. 5 μL AlamarBlue was added to each well (containing 50 μL culture media) and incubated for 4 h at 37°.

in vitro = details: CD-1, mouse, liver microsomes, pH 7.4
Procedure: To test the metabolic stability of the analogs, an in vitro microsomal stability assay was carried out.
The microsomal stability assay was performed in 96-well format (Perkin-Elmer, StorPlate-96U, PP, 96 well, round bottom). […] A stock solution of the compound to be analyzed (0.8 μL. 5 mM) or ethoxycoumarin (positive control, 0.8 μL, 5 mM) was added and the mixture was warmed to 37° C. for 5 minutes. The mouse microsomes (CD-1, 5 μL, thawed in a 37° C. water bath before use, 20 mg/mL, Life Technologies) were added. At selected time points (0, 15, 30, 45, 60 and 120 minutes) aliquots (15 μL) were withdrawn from the plate and quenched upon addition to cold acetonitrile (60 μL), containing an internal standard (5 μM) in a 96-well plate. The samples were centrifuged at 13,000 rpm for 10 minutes at 4° C. The supernatant (40 μL) was withdrawn and transferred to a sample vial with insert. The samples were analyzed by LC-MS.
LC-MS analysis was performed on a platform comprising a Thermo Scientific Dionex Ultimate 3000 and a Bruker amaZon SL equipped with an electrospray ionization source controlled by Bruker Hystar 3.2. […] The flow rate was maintained at 400 μL/min. The initial flow conditions were 60% solvent A (water containing 0.1% acetic acid) and 40% solvent B (methanol containing 0.1% acetic acid).
Aliquots were taken over the course of two hours and analyzed by HPLG-MS using an internal standard to assess compound stability over time.

HGK/MAP4K4 = HGK/MAP4K4 (Homo sapiens, UniProt O95819); assay: Radiolabeled ATP kinase assay (Reaction Biology Corp.), HGK; type: biochemical; parameters: purchased Reaction Biology Corp; details: 10 μM ATP, read-out: % Enzyme Activity (relative to DMSO controls), HGK/MAP4K4, Data 1; for remaining activity at 0.025 µM: [Cmpd] 0.025 μM; for remaining activity at 0.1 µM: [Cmpd] 0.1 μM
HGK/MAP4K4, sequence (O95819 whole entry): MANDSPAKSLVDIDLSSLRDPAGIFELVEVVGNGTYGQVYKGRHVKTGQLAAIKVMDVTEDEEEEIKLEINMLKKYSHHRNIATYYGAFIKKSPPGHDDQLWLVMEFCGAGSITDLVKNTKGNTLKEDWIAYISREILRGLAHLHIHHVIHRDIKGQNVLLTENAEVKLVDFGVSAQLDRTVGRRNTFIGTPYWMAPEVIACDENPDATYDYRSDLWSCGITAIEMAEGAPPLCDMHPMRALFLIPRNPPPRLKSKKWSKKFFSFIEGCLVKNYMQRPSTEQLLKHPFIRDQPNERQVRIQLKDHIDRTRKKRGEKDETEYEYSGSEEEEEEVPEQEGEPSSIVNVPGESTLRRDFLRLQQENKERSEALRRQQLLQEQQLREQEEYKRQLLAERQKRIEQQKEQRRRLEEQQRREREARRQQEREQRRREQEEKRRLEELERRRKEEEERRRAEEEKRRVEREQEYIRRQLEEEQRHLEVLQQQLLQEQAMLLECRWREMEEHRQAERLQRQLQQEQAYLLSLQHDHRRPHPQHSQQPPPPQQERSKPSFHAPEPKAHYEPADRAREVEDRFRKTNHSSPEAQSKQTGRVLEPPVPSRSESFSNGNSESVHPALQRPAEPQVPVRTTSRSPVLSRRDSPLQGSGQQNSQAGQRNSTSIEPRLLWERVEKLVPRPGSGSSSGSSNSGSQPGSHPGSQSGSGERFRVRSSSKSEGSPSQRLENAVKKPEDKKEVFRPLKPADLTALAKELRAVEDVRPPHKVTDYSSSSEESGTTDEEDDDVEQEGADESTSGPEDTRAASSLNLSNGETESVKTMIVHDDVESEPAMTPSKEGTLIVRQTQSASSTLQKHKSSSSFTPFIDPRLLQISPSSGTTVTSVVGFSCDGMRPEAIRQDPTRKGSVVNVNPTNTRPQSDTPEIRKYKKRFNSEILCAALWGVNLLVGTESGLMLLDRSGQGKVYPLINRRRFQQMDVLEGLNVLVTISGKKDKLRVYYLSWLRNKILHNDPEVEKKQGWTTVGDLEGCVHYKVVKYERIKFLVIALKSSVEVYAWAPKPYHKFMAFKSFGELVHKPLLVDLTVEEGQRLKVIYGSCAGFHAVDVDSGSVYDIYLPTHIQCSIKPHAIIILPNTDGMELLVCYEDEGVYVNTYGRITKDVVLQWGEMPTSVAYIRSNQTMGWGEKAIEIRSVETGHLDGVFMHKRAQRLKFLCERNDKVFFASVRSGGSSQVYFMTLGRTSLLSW
Procedure: Meanwhile, the same analogs were analyzed in a radiolabeled ATP assay (10 μM ATP; Reaction Biology Corp.) to compare the extent to which they could inhibit the activity of HGK, MLK1, or MLK3 in a cell-free environment (Table S3 and S4).

SMILES: CN1CCN(Cc2ccc(-c3cnc4[nH]cc(-c5ccc6[nH]ccc6c5)c4c3)cc2)CC1 [Compound 1, 3-(1H-Indol-5-yl)-5-(4-((4-methylpiperazin-1-yl)methyl)phenyl)-1H-pyrrolo[2,3-b]pyridine, reference compound]
- remaining activity at 0.1 µM [1]: 112%
- remaining activity at 0.1 µM [2]: 82.7%
- remaining activity at 0.1 µM [3]: 22.8%
- remaining activity at 0.1 µM [4]: 47.5%
- remaining activity at 0.1 µM [5]: 108%
- remaining activity at 0.1 µM [6]: 63.5%
- TNFα secretion in LPS-stimulated microglia (N9 microglial cells): significantly and dose-dependently decreased TNFα secretion
- half-life at 20 μM (in vitro): 7.8 min
- remaining activity at 0.025 µM (HGK/MAP4K4): 18.5%
- remaining activity at 0.1 µM (HGK/MAP4K4): 5.23%

SMILES: CN1CCN(Cc2ccc(-c3cnc4[nH]cc(-c5cccc(Cl)c5)c4c3)cc2)CC1 [Compound 7ad, 3-(3-Chlorophenyl)-5-(4-((4-methylpiperazin-1-yl)methyl)phenyl)-1H-pyrrolo[2,3-b]pyridine]
- remaining activity at 0.1 µM [1]: 119%
- remaining activity at 0.1 µM [2]: 98.2%
- remaining activity at 0.1 µM [3]: 79.8%
- remaining activity at 0.1 µM [4]: 82%
- remaining activity at 0.1 µM [5]: 105%
- remaining activity at 0.1 µM [6]: 75.4%
- half-life at 20 μM (in vitro): > 30 min
- remaining activity at 0.025 µM (HGK/MAP4K4): 8.51%
- remaining activity at 0.1 µM (HGK/MAP4K4): 2.92%

SMILES: CN1CCN(Cc2ccc(-c3cnc4[nH]cc(-c5cnn(Cc6ccccc6)c5)c4c3)cc2)CC1 [Compound 7ah, 3-(1-Benzyl-1H-pyrazol-4-yl)-5-(4-((4-methylpiperazin-1-yl)methyl)phenyl)-1H-pyrrolo[2,3-b]pyridine]
- remaining activity at 0.1 µM [1]: 109%
- remaining activity at 0.1 µM [2]: 91.4%
- remaining activity at 0.1 µM [3]: 4.24%
- remaining activity at 0.1 µM [4]: 38.3%
- remaining activity at 0.1 µM [5]: 109%
- remaining activity at 0.1 µM [6]: 62.1%
- remaining activity at 0.025 µM (HGK/MAP4K4): 42.8%
- remaining activity at 0.1 µM (HGK/MAP4K4): 3.56%

SMILES: Cc1nn(C)c(C)c1-c1c[nH]c2ncc(-c3ccc(CN4CCN(C)CC4)cc3)cc12 [Compound 7ai, 5-(4-((4-Methylpiperazin-1-yl)methyl)phenyl)-3-(1,3,5-trimethyl-1H-pyrazol-4-yl)-1H-pyrrolo[2,3-b]pyridine]
- remaining activity at 0.1 µM [1]: 106%
- remaining activity at 0.1 µM [2]: 97.5%
- remaining activity at 0.1 µM [3]: 52.5%
- remaining activity at 0.1 µM [4]: 76.5%
- remaining activity at 0.1 µM [5]: 98.2%
- remaining activity at 0.1 µM [6]: 93.3%
- remaining activity at 0.025 µM (HGK/MAP4K4): 105%
- remaining activity at 0.1 µM (HGK/MAP4K4): 106%

SMILES: CN1CCN(Cc2ccc(-c3cnc4[nH]cc(-c5ccccc5Cl)c4c3)cc2)CC1 [Compound 7as, 3-(2-Chlorophenyl)-5-(4-((4-methylpiperazin-1-yl)methyl)phenyl)-1H-pyrrolo[2,3-b]pyridine]
- remaining activity at 0.1 µM [1]: 113%
- remaining activity at 0.1 µM [2]: 77.9%
- remaining activity at 0.1 µM [3]: 22.5%
- remaining activity at 0.1 µM [4]: 35.6%
- remaining activity at 0.1 µM [5]: 113%
- remaining activity at 0.1 µM [6]: 39.3%
- remaining activity at 0.025 µM (HGK/MAP4K4): 17.6%
- remaining activity at 0.1 µM (HGK/MAP4K4): 3.61%

SMILES: COc1ccccc1-c1c[nH]c2ncc(-c3ccc(CN4CCN(C)CC4)cc3)cc12 [Compound 7at, 3-(2-Methoxyphenyl)-5-(4-((4-methylpiperazin-1-yl)methyl)phenyl)-1H-pyrrolo[2,3-b]pyridine]
- remaining activity at 0.1 µM [1]: 104%
- remaining activity at 0.1 µM [2]: 96.4%
- remaining activity at 0.1 µM [3]: 90.9%
- remaining activity at 0.1 µM [4]: 68.1%
- remaining activity at 0.1 µM [5]: 96.2%
- remaining activity at 0.1 µM [6]: 40.5%
- half-life at 20 μM (in vitro): > 30 min
- remaining activity at 0.025 µM (HGK/MAP4K4): 29.3%
- remaining activity at 0.1 µM (HGK/MAP4K4): 4.83%

SMILES: CN1CCN(Cc2ccc(-c3cnc4[nH]cc(-c5ccc6c(c5)OCCO6)c4c3)cc2)CC1 [Compound 7d, 3-(2,3-Dihydrobenzo[b][1,4]dioxin-6-yl)-5-(4-((4-methylpiperazin-1-yl)methyl)phenyl)-1H-pyrrolo[2,3-b]pyridine]
- remaining activity at 0.1 µM [1]: 98.6%
- remaining activity at 0.1 µM [2]: 93.2%
- remaining activity at 0.1 µM [3]: 2.71%
- remaining activity at 0.1 µM [4]: 57.4%
- remaining activity at 0.1 µM [5]: 102%
- remaining activity at 0.1 µM [6]: 37.3%
- remaining activity at 0.025 µM (HGK/MAP4K4): 19.6%
- remaining activity at 0.1 µM (HGK/MAP4K4): 4.25%

SMILES: CN1CCN(Cc2ccc(-c3cnc4[nH]cc(-c5ccncc5)c4c3)cc2)CC1 [Compound 7n, 5-(4-((4-Methylpiperazin-1-yl)methyl)phenyl)-3-(pyridin-4-yl)-1H-pyrrolo[2,3-b]pyridine]
- remaining activity at 0.1 µM [1]: 105%
- remaining activity at 0.1 µM [2]: 100%
- remaining activity at 0.1 µM [3]: 23.6%
- remaining activity at 0.1 µM [4]: 79.7%
- remaining activity at 0.1 µM [5]: 101%
- remaining activity at 0.1 µM [6]: 87.4%
- remaining activity at 0.025 µM (HGK/MAP4K4): 65.7%
- remaining activity at 0.1 µM (HGK/MAP4K4): 29.9%

SMILES: CN1CCN(Cc2ccc(-c3cnc4[nH]cc(-c5ccoc5)c4c3)cc2)CC1 [Compound 7w, 3-(Furan-3-yl)-5-(4-((4-methylpiperazin-1-yl)methyl)phenyl)-1H-pyrrolo[2,3-b]pyridine]
- remaining activity at 0.1 µM [1]: 112%
- remaining activity at 0.1 µM [2]: 93.1%
- remaining activity at 0.1 µM [3]: 59.2%
- remaining activity at 0.1 µM [4]: 75.2%
- remaining activity at 0.1 µM [5]: 110%
- remaining activity at 0.1 µM [6]: 90%
- remaining activity at 0.025 µM (HGK/MAP4K4): 29%
- remaining activity at 0.1 µM (HGK/MAP4K4): 4.46%

SMILES: OCCN1CCN(Cc2ccc(-c3cnc4[nH]cc(-c5cccc(Cl)c5)c4c3)cc2)CC1 [Compound 12k, 2-(4-(4-(3-(3-Chlorophenyl)-1H-pyrrolo[2,3-b]pyridin-5-yl)benzyl)piperazin-1-yl)ethan-1-ol]
- potency in TNFα release assay relative to compound 1 (times less potent) (N9 microglial cells): ~5 ×
- TNFα secretion in LPS-stimulated microglia (N9 microglial cells): significantly decreased TNFα secretion
- half-life at 20 μM (in vitro): > 120 min
